Assay results reported in patent US20250376458A1, “COMPOUNDS AND METHODS FOR YAP/TEAD MODULATION AND INDICATIONS THEREFOR” (OPNA BIO SA, priority 2023, published 2025).
Where two headings read alike, the source gives them in different places.

Test system: TEAD-dependent transcription
Experiment: TEAD-dependent transcription cell-based luciferase reporter assay (MSTO-211H+12XGTIIC)
Parameters: species or system human
Settings: MSTO-211H+12XGTIIC cell line, 24 hours compound incubation, luminescence normalized to cell viability fluorescence signal, read-out: MSTO-211H GMean IC50 (uM) Cell Assay Reporter Cell Variant: TEAD
Text: Determine Inhibitor Activity Against TEAD-Dependent Transcription in a Cell-Based Reporter Assay
The human mesothelioma cell line MSTO-211H was stably transfected with a pGL4.21 plasmid containing a synthetic promoter with 12 copies of the GTIIC TEAD response element that drives the expression of a luciferase reporter gene i using Lipofectamine transfection reagent (Thermo Fisher). Transfected cells were selected using puromycin and single cell clones expressing this construct (referred to as MSTO-211H+12XGTIIC) were generated by limiting dilution. MSTO-211H cells was characterized by genetic alterations in key components of the Hippo pathway^2, resulting in up-regulation of YAP/TEAD-mediated transcription. […] To evaluate TEAD inhibitors, the MSTO-211H+12XGTIIC cell line was seeded in a 96-well plate in 50 μL of culture media at 1×10^4 cells per well and incubated at 37° C. overnight. Serial dilutions of compounds (in total volume of 50 μL of culture media) were added to the cells and incubated at 37° C. for 24 hours. Each plate included cells treated with DMSO as high controls and cells treated with 20 μM of the reference compound K-975 (a known TEAD inhibitor)^3 as low controls. Cell viability was assayed by the addition of 25 μL of CellTiter-Fluor reagent (Promega) followed by a 30-minute incubation at 37° C. and quantification of the fluorescence signal (Ex400/Em505). Subsequently, luciferase expression was assayed by the addition of 25 μL of ONE-Glo reagent (Promega) followed by a 10-minute incubation at room temperature and quantification of the luminescence signal. The luminescence signal was normalized to the fluorescence signal to correct for any loss in cell viability over the 24-hour compound incubation period. The percentage of inhibition of normalized luminescence signal, indicative of compound-mediated inhibition of TEAD-dependent transcription, at individual compound concentrations relative to high and low controls was calculated. The data were analyzed by using nonlinear regression to generate IC50 values for individual compounds.

Compound | IC50 (Homo sapiens, MSTO-211H, 24 h) [µM] | IC50 [µM]
CC(C)S(=O)(=O)c1nc(C(=O)N2CCc3c(cccc3Oc3ccc(C(F)(F)F)cc3)C2)c[nH]1 [O-0021, (2-(isopropylsulfonyl)-1H-imidazol-4-yl)(5-(4-(trifluoromethyl)phenoxy)-3,4-dihydroisoquinolin-2(1H)-yl)methanone] | 0.001 to 10 | 
CCCS(=O)(=O)c1nc(C(=O)N2CCc3c(cccc3Nc3ccc(C(F)(F)F)cc3)C2)c[nH]1 [O-0020, (2-(propylsulfonyl)-1H-imidazol-4-yl)(5-((4-(trifluoromethyl)phenyl)amino)-3,4-dihydroisoquinolin-2(1H)-yl)methanone] | 0.001 to 10 | 
CS(=O)(=O)c1nc(C(=O)N2CCc3c(ncnc3Oc3ccc(C(F)(F)F)cc3)C2)c[nH]1 [O-0131, (2-(methylsulfonyl)-1H-imidazol-4-yl)(4-(4-(trifluoromethyl)phenoxy)-5,8-dihydropyrido[3,4-d]pyrimidin-7(6H)-yl)methanone] |  | 10 to 100
CC(C)S(=O)(=O)c1nc(C(=O)N2CCc3c(cccc3Nc3ccc(C(F)(F)F)cc3)C2)c[nH]1 [O-0022, (2-(isopropylsulfonyl)-1H-imidazol-4-yl)(5-((4-(trifluoromethyl)phenyl)amino)-3,4-dihydroisoquinolin-2(1H)-yl)methanone] | 0.001 to 10 | 
CC(C)S(=O)(=O)c1nc(C(=O)N2CCc3c(cccc3Nc3ccc(C(F)(F)F)c(F)c3)C2)c[nH]1 [O-0027, (5-((3-fluoro-4-(trifluoromethyl)phenyl)amino)-3,4-dihydroisoquinolin-2(1H)-yl)(2-(isopropylsulfonyl)-1H-imidazol-4-yl)methanone] | 0.001 to 10 | 
CS(=O)(=O)c1nc(C(=O)N2CCc3cc(Oc4ccc(C(F)(F)F)c(F)c4)cnc3C2)c[nH]1 [O-0077, (3-(3-fluoro-4-(trifluoromethyl)phenoxy)-5,8-dihydro-1,7-naphthyridin-7(6H)-yl)(2-(methylsulfonyl)-1H-imidazol-4-yl)methanone] | 0.001 to 10 | 
CS(=O)(=O)c1nc(C(=O)N2CCc3c(ncnc3Oc3ccc(C(F)(F)F)cc3)C2)c[nH]1 [O-0119, (2-(methylsulfonyl)-1H-imidazol-4-yl)(4-(4-(trifluoromethyl)phenoxy)-5,8-dihydropyrido[3,4-d]pyrimidin-7(6H)-yl)methanone] |  | 0.001 to 10
CCS(=O)(=O)c1nc(C(=O)N2CCc3c(cccc3Oc3ccc(C(F)(F)F)cc3)C2)c[nH]1 [O-0011, (2-(ethylsulfonyl)-1H-imidazol-4-yl)(5-(4-(trifluoromethyl)phenoxy)-3,4-dihydroisoquinolin-2(1H)-yl)methanone] | 10 to 100 | 
Cn1cc(C(=O)N2CCc3c(cccc3Nc3ccc(C(F)(F)F)cc3)C2)nc1S(C)(=O)=O [O-0007, (1-methyl-2-(methylsulfonyl)-1H-imidazol-4-yl)(5-((4-(trifluoromethyl)phenyl)amino)-3,4-dihydroisoquinolin-2(1H)-yl)methanone] | 0.001 to 10 | 
CS(=O)(=O)c1nc(C(=O)N2CCc3c(ncnc3Oc3ccc(C(F)(F)F)c(F)c3)C2)c[nH]1 [O-0128, (4-(3-fluoro-4-(trifluoromethyl)phenoxy)-5,8-dihydropyrido[3,4-d]pyrimidin-7(6H)-yl)(2-(methylsulfonyl)-1H-imidazol-4-yl)methanone] |  | 10 to 100
CNS(=O)(=O)c1nc(C(=O)N2CCc3cc(Oc4ccc(C(F)(F)F)cc4)ccc3C2)c[nH]1 [O-0111, N-methyl-4-(6-(4-(trifluoromethyl)phenoxy)-1,2,3,4-tetrahydroisoquinoline-2-carbonyl)-1H-imidazole-2-sulfonamide] | 0.001 to 10 | 
CS(=O)(=O)c1ncc(C(=O)N2CCc3ccc(Oc4ccc(C(F)(F)F)c(F)c4)cc3C2)[nH]1 [O-0123, (7-(3-fluoro-4-(trifluoromethyl)phenoxy)-3,4-dihydroisoquinolin-2(1H)-yl)(2-(methylsulfonyl)-1H-imidazol-5-yl)methanone] | 10 to 100 | 
CS(=O)(=O)c1nc(C(=O)N2CCc3c(ncnc3Oc3ccc(C(F)(F)F)cc3F)C2)c[nH]1 [O-0120, (4-(2-fluoro-4-(trifluoromethyl)phenoxy)-5,8-dihydropyrido[3,4-d]pyrimidin-7(6H)-yl)(2-(methylsulfonyl)-1H-imidazol-4-yl)methanone] | 0.001 to 10 | 
CCS(=O)(=O)c1nc(C(=O)N2CCc3c(ncnc3Oc3ccc(C(F)(F)F)cc3)C2)c[nH]1 [O-0130, (2-(ethylsulfonyl)-1H-imidazol-4-yl)(4-(4-(trifluoromethyl)phenoxy)-5,8-dihydropyrido[3,4-d]pyrimidin-7(6H)-yl)methanone] | 10 to 100 | 
CS(=O)(=O)c1nc(C(=O)N2CCc3ccc(Nc4ccc(C(F)(F)F)cn4)cc3C2)c[nH]1 [O-0015, (2-(methylsulfonyl)-1H-imidazol-4-yl)(7-((5-(trifluoromethyl)pyridin-2-yl)amino)-3,4-dihydroisoquinolin-2(1H)-yl)methanone] | 10 to 100 | 
Cn1c(C(=O)N2CCc3c(cccc3Nc3ccc(C(F)(F)F)cn3)C2)cnc1S(C)(=O)=O [O-0006, (1-methyl-2-(methylsulfonyl)-1H-imidazol-5-yl)(5-((5-(trifluoromethyl)pyridin-2-yl)amino)-3,4-dihydroisoquinolin-2(1H)-yl)methanone] | 0.001 to 10 | 
CS(=O)(=O)c1nc(C(=O)N2CCc3ccc(Nc4ccc(C(F)(F)F)nc4)cc3C2)c[nH]1 [O-0016, (2-(methylsulfonyl)-1H-imidazol-4-yl)(7-((6-(trifluoromethyl)pyridin-3-yl)amino)-3,4-dihydroisoquinolin-2(1H)-yl)methanone] | 10 to 100 | 
Cn1c(C(=O)N2CCc3c(cccc3Nc3ccc(C(F)(F)F)cc3)C2)cnc1S(C)(=O)=O [O-0008, (1-methyl-2-(methylsulfonyl)-1H-imidazol-5-yl)(5-((4-(trifluoromethyl)phenyl)amino)-3,4-dihydroisoquinolin-2(1H)-yl)methanone] | 0.001 to 10 | 
